# Experimental data from US12612599B2, “Compositions and methods for microglia replacement therapy” (Savanna Biotherapeutics, Inc., priority 2018, dated 2026).
# Test system: bone marrow derived macrophages (BMDMs) expressing human CSF1R variants
# Test: In vitro survival assay of retrovirally transduced bone marrow derived macrophages expressing CSF1R variants under PLX3397
# Assay type: cell-based, mouse
# Details: PLX3397 100 nM, 48 hours, CellTiter-Glo 2; compared to cells expressing WT CSF1R; FIG. 23
row,Substance,ratio between number of cells following treatment with CSF1R inhibitor (PLX-3397) + CSF1 and number of cells following complete deprivation of CSF1
1,"D796A: human CSF1R variant, SEQ ID NO: 12",higher ratio than cells expressing WT CSF1R
2,"G795A: human CSF1R variant, SEQ ID NO: 10",higher ratio than cells expressing WT CSF1R
3,"M637L: human CSF1R variant, SEQ ID NO: 11",higher ratio than cells expressing WT CSF1R
4,"Y546F: human CSF1R variant, SEQ ID NO: 14",higher ratio than cells expressing WT CSF1R
